Experimental findings from paper PMC6497555 (Molecular cancer therapeutics, 2019) are described below.

In the series the test system is HeyA8 tumor model. In words: HeyA8 intraperitoneal ovarian cancer mouse model. The following applies: all four groups compared; EP-100 0.2 mg/kg, olaparib 50 mg/kg. The format is in vivo.

Take `O=C(c1cc(Cc2n[nH]c(=O)c3ccccc23)ccc1F)N1CCN(C(=O)C2CC2)CC1` [olaparib]: the “Body weights of the host mice at the end of the experiment” value is on record as “did not differ significantly”.
